Experimental data reported in patent US20260241012A1, “1,8-NAPHTHYRIDIN-2-ONE HETEROBIFUNCTIONAL BCL6 DEGRADERS” (Treeline Biosciences, Inc., priority 2022, published 2026).

Target: T1, N-terminal HiBiT tagged BCL6 (Homo sapiens, UniProt P41182)
T1 construct: expressed in transfected cells; host or cells: HT1080 (ATCC CCL-121), stably transduced with lentivirus pLV-UBC-N-HiBiT-BCL6-PGK-puro
Test: HiBiT based degradation assay
Assay type: cell-based
Conditions: HT1080 cells expressing N-terminal HiBiT tagged BCL6, 5 hours of incubation; for Ymin (5 hr): BCL6 degradation normalized with DMSO control; for DC50: four-parameter logistic model, read-out: EC50 (5 hr)
Text: Human BCL6 protein coding open reading frame fused with N-terminal HiBiT coding sequence was synthesized from Integrated DNA Technologies (IDT). Next, the N-HiBiT-BCL6 sequence was cloned into pLV-UBC-PGK-Puro, a lentivirus plasmid purchased from Vectorbuilder, to generate pLV-UBC-N-HiBiT-BCL6-PGK-puro. Lentiviral particles were generated from Lenti-X™ 293T cells (Clontech) by co-transfection of pLV-UBC-N-HiBiT-BCL6-PGK-puro plasmids and lentiviral packaging plasmid mix (Cellecta). HT1080 [HT1080] (ATCC CCL-121) cells were infected with the lentivirus, and HT1080 cells stably integrated with the lentiviral vectors were established by incubation with 1 μg/mL puromycin (Thermofisher).
HT1080 cells expressing N-terminal HiBiT tagged BCL6 were dispensed into a 384-well plate pre-spotted with compounds at varying concentrations. Five thousand cells were seeded into each well in 40 μL of RPMI 1640 media plus 10% Fetal Bovine Serum (10082-147, Thermofisher). After 5 hours of incubation at 37° C. with 5% CO2, 30 μL of the NANO-GLOR HiBiT Lytic Detection System working solution (Promega) was added to each well and incubated at room temperature for 15 min. After incubation, luminescence was read on a PHERAstar FSX Plate Reader (BMG). BCL6 degradation at each indicated concentration was normalized with DMSO control. The BCL6 degradation curves were plotted using a four-parameter logistic model.

Structure (SMILES) | Ymin (5 hr) | DC50
CNC(=O)COc1cc2cc(Nc3nc(N4CCN(CC5CCN(c6cccc7c(C8CCC(=O)NC8=O)nn(C)c67)CC5)C[C@@H]4CO)ncc3Cl)cnc2n(C(C)C)c1=O (stereo partly drawn) [Compound 155b, 2-((6-((5-chloro-2-((2R)-4-((1-(3-(2,6-dioxopiperidin-3-yl)-1-methyl-1H-indazol-7-yl)piperidin-4-yl)methyl)-2-(hydroxymethyl)piperazin-1-yl)pyrimidin-4-yl)amino)-1-isopropyl-2-oxo-1,2-dihydro-1,8-naphthyridin-3-yl)oxy)-N-methylacetamide] | ++++ (Ymin < 30%) | < 0.01 µM
CNC(=O)COc1cc2cc(Nc3nc(N4CC5(CC[C@H](Nc6ccc7c(C8CCC(=O)NC8=O)nn(C)c7c6)[C@@H](C)C5)C4)ncc3Cl)cnc2n(C(C)C)c1=O (relative stereo) [Compound 180c, rel-2-((6-((5-chloro-2-((6S,7S)-7-((3-(2,6-dioxopiperidin-3-yl)-1-methyl-1H-indazol-6-yl)amino)-6-methyl-2-azaspiro[3.5]nonan-2-yl)pyrimidin-4-yl)amino)-1-isopropyl-2-oxo-1,2-dihydro-1,8-naphthyridin-3-yl)oxy)-N-methylacetamide] | ++++ (Ymin < 30%) | < 0.01 µM
CNC(=O)COc1cc2cc(Nc3nc(N4CCC(CN5CCN(c6ccc7c(C8CCC(=O)NC8=O)nn(C)c7c6)C[C@H]5CO)CC4)ncc3Cl)cnc2n(C(C)C)c1=O (stereo partly drawn) [Compound 232a, 2-[[6-[[5-chloro-2-[4-[[(2S)-4-[3-(2,6-dioxo-3-piperidyl)-1-methyl-indazol-6-yl]-2-(hydroxymethyl)piperazin-1-yl]methyl]-1-piperidyl]pyrimidin-4-yl]amino]-1-isopropyl-2-oxo-1,8-naphthyridin-3-yl]oxy]-N-methyl-acetamide] | +++ (30% ≤ Ymin < 50%) | < 0.01 µM
CNC(=O)COc1cc2cc(Nc3nc(N4CC5(CCC(Nc6ccc7c(C8CCC(=O)NC8=O)nn(C)c7c6)CC5)C4)ncc3Cl)cnc2n(C)c1=O (stereo not drawn) [Compound 138, 2-((6-((5-chloro-2-(7-((3-(2,6-dioxopiperidin-3-yl)-1-methyl-1H-indazol-6-yl)amino)-2-azaspiro[3.5]nonan-2-yl)pyrimidin-4-yl)amino)-1-methyl-2-oxo-1,2-dihydro-1,8-naphthyridin-3-yl)oxy)-N-methylacetamide] | ++++ (Ymin < 30%) | < 0.01 µM
CNC(=O)COc1cc2cc(Nc3nc(N4CCN(C(C)(C)C5CCN(c6ccc7c(C8CCC(=O)NC8=O)nn(C)c7c6)CC5)CC4)ncc3Cl)cnc2n(C(C)C)c1=O (stereo not drawn) [Compound 158, 2-((6-((5-chloro-2-(4-(2-(1-(3-(2,6-dioxopiperidin-3-yl)-1-methyl-1H-indazol-6-yl)piperidin-4-yl)propan-2-yl)piperazin-1-yl)pyrimidin-4-yl)amino)-1-isopropyl-2-oxo-1,2-dihydro-1,8-naphthyridin-3-yl)oxy)-N-methylacetamide] | ++ (50% ≤ Ymin < 70%) | < 0.01 µM
CNC(=O)COc1cc2cc(Nc3nc(N4CCN(CC5CCN(c6cccc7c(C8CCC(=O)NC8=O)nn(C)c67)CC5)C[C@H]4CO)ncc3Cl)cnc2n(C(C)C)c1=O (stereo partly drawn) [Compound 155a, 2-((6-((5-chloro-2-((2S)-4-((1-(3-(2,6-dioxopiperidin-3-yl)-1-methyl-1H-indazol-7-yl)piperidin-4-yl)methyl)-2-(hydroxymethyl)piperazin-1-yl)pyrimidin-4-yl)amino)-1-isopropyl-2-oxo-1,2-dihydro-1,8-naphthyridin-3-yl)oxy)-N-methylacetamide] | +++ (30% ≤ Ymin < 50%) | 0.01 to 0.1 µM
CNC(=O)COc1cc2cc(Nc3cc(N4CCC(CN5CCN(c6ccc7c(C8CCC(=O)NC8=O)nn(C)c7c6)CC5)CC4)ncc3Cl)cnc2n(C(C)C)c1=O (stereo not drawn) [Compound 190, 2-[[6-[[5-chloro-2-[4-[[4-[3-(2,6-dioxo-3-piperidyl)-1-methyl-indazol-6-yl]piperazin-1-yl]methyl]-1-piperidyl]-4-pyridyl]amino]-1-isopropyl-2-oxo-1,8-naphthyridin-3-yl]oxy]-N-methyl-acetamide] | ++ (50% ≤ Ymin < 70%) | 0.01 to 0.1 µM
CNC(=O)COc1cc2cc(Nc3cc(N4CCN(CC5CCN(c6cccc7c(C8CCC(=O)NC8=O)nn(C)c67)CC5)[C@H](CO)C4)ncc3Cl)cnc2n(C(C)C)c1=O (stereo partly drawn) [Compound 233a, 2-[[6-[[5-chloro-2-[(3S)-4-[[1-[3-(2,6-dioxo-3-piperidyl)-1-methyl-indazol-7-yl]-4-piperidyl]methyl]-3-(hydroxymethyl)piperazin-1-yl]-4-pyridyl]amino]-1-isopropyl-2-oxo-1,8-naphthyridin-3-yl]oxy]-N-methyl-acetamide] | ++++ (Ymin < 30%) | 0.01 to 0.1 µM
CNC(=O)COc1cc2cc(Nc3nc(N4CCN(C(=O)N5CCN(c6ccc7c(C8CCC(=O)NC8=O)nn(C)c7c6)CC5)CC4)ncc3Cl)cnc2n(C(C)C)c1=O (stereo not drawn) [Compound 219, 2-[[6-[[5-chloro-2-[4-[4-[3-(2,6-dioxo-3-piperidyl)-1-methyl-indazol-6-yl]piperazine-1-carbonyl]piperazin-1-yl]pyrimidin-4-yl]amino]-1-isopropyl-2-oxo-1,8-naphthyridin-3-yl]oxy]-N-methyl-acetamide] | +++ (30% ≤ Ymin < 50%) | < 0.01 µM
CNC(=O)COc1cc2cc(Nc3nc(N4CCN(CC5CCN(c6cccc7c(C8CCC(=O)NC8=O)nn(C)c67)CC5)[C@@H](C(F)(F)F)C4)ncc3Cl)cnc2n(C(C)C)c1=O (stereo partly drawn) [Compound 163a, 2-[[6-[[5-chloro-2-[(3R)-4-[[1-[3-(2,6-dioxo-3-piperidyl)-1-methyl-indazol-7-yl]-4-piperidyl]methyl]-3-(trifluoromethyl)piperazin-1-yl]pyrimidin-4-yl]amino]-1-isopropyl-2-oxo-1,8-naphthyridin-3-yl]oxy]-N-methyl-acetamide] | +++ (30% ≤ Ymin < 50%) | 0.1 to 1 µM
CNC(=O)COc1cc2cc(Nc3nc(N4CCC(CN5CCN(c6ccc7c(C8CCC(=O)NC8=O)nn(C)c7c6)C[C@H]5C)CC4)ncc3Cl)cnc2n(C(C)C)c1=O (stereo partly drawn) [Compound 215a, 2-((6-((5-chloro-2-(4-(((2R)-4-(3-(2,6-dioxopiperidin-3-yl)-1-methyl-1H-indazol-6-yl)-2-methylpiperazin-1-yl)methyl)piperidin-1-yl)pyrimidin-4-yl)amino)-1-isopropyl-2-oxo-1,2-dihydro-1,8-naphthyridin-3-yl)oxy)-N-methylacetamide] | +++ (30% ≤ Ymin < 50%) | < 0.01 µM
CNC(=O)COc1cc2cc(Nc3nc(N4CCC5(CCC(CN6CCN(c7ccc8c(C9CCC(=O)NC9=O)nn(C)c8c7)CC6)CC5)CC4)ncc3Cl)cnc2n(C(C)C)c1=O (stereo not drawn) [Compound 204, 2-((6-((5-chloro-2-(9-((4-(3-(2,6-dioxopiperidin-3-yl)-1-methyl-1H-indazol-6-yl)piperazin-1-yl)methyl)-3-azaspiro[5.5]undecan-3-yl)pyrimidin-4-yl)amino)-1-isopropyl-2-oxo-1,2-dihydro-1,8-naphthyridin-3-yl)oxy)-N-methylacetamide] | ++++ (Ymin < 30%) | 0.01 to 0.1 µM
